How the values were obtained:
Format in all cases: in vivo
[1] = test system: Western flower thrips, Frankliniella occidentalis (Pergande); test: Western flower thrips bioassay on treated first true cotton leaves (Example 5); conditions: alone
Method: Ten second instar larvae of the Western flower thrips, Frankliniella occidentalis (Pergande), were infested onto each leaf disc. […] The “Colby's Expected Action” was calculated using Colby's equation as discussed previously.

[2] = test system: brown stink bug, Euschistus heros; test: Brown stink bug diet-treatment bioassay (Example 6); conditions: alone
[3] = test system: diamondback moth, Plutella xylostella; test: Diamondback moth bioassay on track-sprayed cabbage (Example 7); conditions: alone, dose rate 0.000078 weight %
Excerpt: Three second-instar diamondback moth, Plutella xylostella, were infested onto each leaf disc.

[4] = test system: Western plant bug, Lygus hesperus; test: Western plant bug bean-piece dip bioassay (Examples 10 and 11)
Method: Bean pieces (about one inch-long) were used for the tests. Four bean pieces were placed in each tested active solution and left there for 10 minutes. Bean pieces were taken out of the active solution, and each piece was placed in a well in a 32-well tray and allowed to air dry. Three third-instar nymphs of Western plant bug, Lygus hesperus, were infested into each well.

[5] = test system: Western flower thrips, Frankliniella occidentalis; test: Western flower thrips cotton leaf punch dip bioassay (Example 9); conditions: alone
Method: The active compounds were formulated in a 10% acetone solution with 0.025% non-ionic surfactant, TWEEN® 20. Cotton leaf punches were used for bioassays. Two cotton leaf punches were placed in each solution and left there for 10 minutes. Leaves were taken out of the solution, placed on a piece of filter paper in separated Petri dishes, and air dried. Each leaf disc was considered a repetition. Five nymph of Western flower thrips, Frankliniella occidentalis, were infested per repetition.

[6] = test system: brown stink bug, Euschistus heros; test: Brown stink bug bean-piece dip bioassay (Example 8); conditions: alone
Method: The active compounds were formulated in a 10% acetone solution with 0.025% non-ionic surfactant, TWEEN® 20. Bean pieces (about one inch-long) were used for the tests. Four bean pieces were placed in each tested active solution and left there for 10 minutes. Bean pieces were taken out of the active solution, and each piece was placed in a well in a 32-well tray and allowed to air dry. Three third-instar nymphs of brown stink bug, Euschistus heros, were infested into each well.
The active compounds formulated in a 10% acetone solution with 0.025% non-ionic surfactant, TWEEN® 20 were tested against brown stink bugs, Euschistus heros, according to the procedure described in example 8A.

SMILES: C/C(=N\C#N)N(C)Cc1ccc(Cl)nc1 [Acetamiprid, (1E)-N-[(6-chloro-3-pyridyl)methyl]-N′-cyano-N-methyl acetamidine]
- % Control Three Days After Treatment ([1]; dose rate 0.002 weight %): 30%
- % Control Three Days After Treatment ([1]; dose rate 0.02 weight %): 60%
- % Control Six Days After Treatment ([2]; dose rate 0.000039 weight %): 0%
- % Control Six Days After Treatment ([2]; dose rate 0.000078 weight %): 0%
- % Control Six Days After Treatment ([2]; dose rate 0.000156 weight %): 9%
- % Control Three Days After Treatment [3]: 4.17%
- % Control Three Days After Treatment ([4]; acetamiprid alone, dose rate 0.005 weight %): 0%
- % Control Three Days After Treatment ([4]; acetamiprid alone, dose rate 0.02 weight %): 33%

SMILES: CN=C(NCC1CCOC1)N[N+](=O)[O-] (centres unmarked) [Dinotefuran, 2-methyl-1-nitro-3-[(tetrahydro-3-furanyl)methyl]guanidine]
- % Control Three Days After Treatment ([5]; dose rate 0.00002 weight %): 0%
- % Control Three Days After Treatment ([5]; dose rate 0.000078 weight %): 0%
- % Control Three Days After Treatment ([5]; dose rate 0.0003125 weight %): 0%
- % Control Three Days After Treatment ([5]; dose rate 0.00125 weight %): 0%
- % Control Three Days After Treatment ([5]; dose rate 0.005 weight %): 10%
- % Control Three Days After Treatment ([5]; dose rate 0.02 weight %): 0%
- % Control Four Days After Treatment ([6]; dose rate 0.0025 weight %): 50%
- % Control Four Days After Treatment ([6]; dose rate 0.01 weight %): 75%
- % Control Three Days After Treatment ([4]; dinotefuran alone, dose rate 0.000078 weight %): 0%
- % Control Three Days After Treatment ([4]; dinotefuran alone, dose rate 0.00125 weight %): 8%
- % Control Three Days After Treatment ([4]; dinotefuran alone, dose rate 0.005 weight %): 17%
- % Control Three Days After Treatment ([4]; dinotefuran alone, dose rate 0.02 weight %): 92%
